Laboratory results published in patent US10934263B2, “Charged ion channel blockers and methods for use” (Nocion Therapeutics, Inc., priority 2019, dated 2021).
pIC50: −log10 of the molar value.

Legend:
[1] = PAMPA membrane permeability assay; type: in vitro ADME; settings: PAMPA permeability coefficient, GIT lipid, buffer pH 7.4, 4 hours incubation
Procedure: The PAMPA assay (pION, Inc., Woburn Mass.) was used to determine the ability of compounds of the invention to cross an artificial lipid membrane by passive diffusion. Test compounds were dissolved in DMSO (10 mM) and diluted 200-fold in buffer (pION Inc., pH 7.4) to provide 50 uM stock solutions. Buffer (150 μL) was added to a UV blank plate and stock solutions (150 μL) were transferred to a UV reference plate. The blank and reference spectrum were read using a spectrophotometer. Stock solutions (200 μL) were added to the donor plate of the PAMPA sandwich plate and an accept plate painted with GIT lipid (pION Inc, 5 μL) was placed on top. Buffer (200 μL) was added to the acceptor plate and the PAMPA sandwich plate was incubated for 4 hours. Aliquots (150 μL) from the acceptor plate were added to a UV plate and read as acceptor spectrum. Aliquots (150 μL) of the donor solutions were added to a UV analysis plate and read as donor spectrum. The permeability coefficient of test compounds was calculated using PAMPA Explorer™ software (version 3.5.0.4) based on the AUC of the reference plate, the donor plate, and the acceptor plate.

NaV1.7 [2] = target: T1, NaV1.7 (Homo sapiens, UniProt Q15858); test: Automated patch clamp (Qube 384), external block of NaV1.7 in HEK293 cells; type: cell-based; settings: compound in external solution, read-out: Nav1.7 Extracellular Inhibition (IC50)
T1 construct: expressed in transfected cells; tetracycline-inducible, kept under hygromycin and blasticidin
Procedure: (§1) NaV1.7 was expressed in HEK293 cells upon induction with tetracycline. Cells were cultured in DMEM containing 10% dialyzed Fetal Bovine Serum (VWR, Radnor, Pa.), 1% Glutamax (VWR, Radnor, Pa.), 1% Penicillin-Streptomycin (VWR, Radnor, Pa.), 100 mg/L Hygromycin (Thermo Fisher Scientific, Waltham, Mass. and 5 mg/L Blasticidin (Alfa Aesar, Haverhill, Mass.). Cells were grown and maintained at 37° C. in a humidified environment containing 10% CO2 in air. Cells were detached from the culture flask for passage and harvested using 0.05% Trypsin-EDTA (Thermo Fisher Scientific, Waltham, Mass.). To induce NaV1.7, cells were induced with tetracycline (0.1-1 μg/mL, IBI Scientific, Peosta, Iowa) the day before recording.
(§2) Before experiments, cells were washed with DPBS (VWR, Radnor, Pa.), digested with Detachin (VWR Radnor, Pa.) and then triturated 10 times in CHO Serum-Free Media (VWR Radnor, Pa.) to resuspend the cells and to break apart cell aggregates. Cells were counted and the final concentration was set at 2-5 million cells per mL.
(§3) The intracellular solution contained the following: 140 mM CsF, 1 mM/5 mM EGTA/CsOH, 10 mM HEPES, 10 mM NaCl, adjusted to pH 7.3 with CsOH, and osmolality to 320 with sucrose. The external solution contained the following: 145 mM NaCl, 4 mM KCl, 1 mM MgCl2, 2 mM CaCl2, 10 mM HEPES, 10 mM Glucose, adjusted to pH 7.4 with CsOH and osmolality to 305 with sucrose. All chemicals are from Sigma-Aldrich, St. Louis, Mo. In order to test the degree of internal block by test compounds, the compounds were dissolved in internal solution at the indicated test concentration. […] In order to test the degree of external block by test compounds the compounds were dissolved in external solution at the indicated test concentration.
(§4) Automated Patch Clamps were performed on Qube 384 (Sophion Bioscience, Woburn Mass.) with multihole Qchips at a temperature setting of 22 degrees. The whole cells configuration was formed with default Qube seal and break-in parameter. The membrane potential was held at −100 mV before the voltage protocol began. Two voltage protocols were followed.
(§5) Step 1: Cells were held at −100 mV with a depolarized pulse to −20 mV for 10 ms, the interval was set at 5 s. Currents were corrected by default leak subtraction from every pulse. The duration was set at 5 mins.
(§6) Step 2: Cells were held at −100 mV with a depolarized pulse to −20 mV for 10 ms. The frequency was 5 Hz. Currents were corrected by leak subtraction calculated before step 2. The duration was set at 4 mins.
After Step 2, the external solution was changed with solutions containing test compounds. Qchips were held at −100 mV without pulsing. The total solution switching time was 8 minutes. After the external solution exchange, cells were recorded using the same procedure as step 2 for 10 minutes.
Data analysis was performed by Sophion Analyzer. Data were corrected with control cells (Non-Drug). The IC50 data were plotted with DR-plots/Hill function (a dose-response plot with a Hill fit).

NaV1.7 [3] = target: T1, NaV1.7; test: Automated patch clamp (Qube 384), internal block of NaV1.7 in HEK293 cells; type: cell-based; settings: compound in internal solution, read-out: Nav1.7 Intracellular Inhibition (IC50)
Procedure: as §1, §2, §3, §4, §5, §6
After Step 2, the Qchip was removed from the recording chamber. The internal solution was changed with solutions containing test compounds. Qchips were held at −100 mV without pulsing after being replaced in the recording chamber. The total solution switching time was 8 minutes. After the internal solution exchange, Cells were recorded and step 2 for repeated for 10 minutes.
Data analysis was performed by Sophion Analyzer. Cells were filtered with minimum 50 MOhm seal resistance and minimum 5 nA starting current. The rundown of the currents was corrected with control cells (Non-Drug). The remaining was calculated by averaging last 3 points in the end of experiments. The base line was calculated as the average of last 3 points of Step 2. IC50 curves were plotted with DR-plots/Hill function (a dose-response plot with a Hill fit). Data analysis was performed by Sophion Analyzer.

NaV1.7 [4] = target: T1, NaV1.7; test: Whole cell patch clamp, internal block of NaV1.7 current (compound in internal solution); type: cell-based; settings: % inhibition at 10 μM, compound applied internally, manual patch clamp; read-out: Nav1.7 Intracellular Inhibition
Procedure: Representative compounds of the invention were synthesized according to the described methods and tested for the ability to inhibit voltage-gated sodium channels.
as §1, with “expressed” for “expressed in HEK293 cells”, “recording and plated onto 24-well plates. Cells were washed with DPBS (VWR, Radnor, Pa.), trypsinized and then triturated five times in 10 mL of growth media to break apart cell aggregates. For one 24-well plate, 2 mL of cell suspension was mixed with 23 mL of fresh growth media and 0.1-1 μg/mL tetracycline added. 1 ml of mixed media with cells was then added to each well of a 24-well plate, with a 12 mm coverslip already placed in the bottom of the well. Cells were then incubated in 37° C. and 10% CO2 overnight.” for “recording.”
The intracellular solution contained the following (in mM) CsCl 135, NaCl 10, EGTA 10, HEPES 10, MgCl2 2, adjusted to pH 7.2 with CsOH. The external solution was a normal Ringer solution containing (in mM) NaCl 155, HEPES 10, glucose 10, KCl 3.5, CaCl2 1.5, MgCl2 1 adjusted to pH 7.4 with NaOH. CsCl is from Alfa Aesar, Haverhill, Mass. All other chemicals are from Sigma-Aldrich, St. Louis, Mo. In order to test the degree of internal block by test compounds the compounds were dissolved in internal solution at the indicated test concentration. […] In order to test the degree of external block by test compounds the compounds were dissolved in external solution at the indicated test concentration.
18-24 hours after cells were induced with tetracycline, coverslips were placed into a chamber filled with Normal Ringer solution at room temperature and the chamber placed on a microscope. Pipettes were pulled from borosilicate glass on a P97 puller (Sutter Instrument, Novato, Calif.) and polished with a MF-830 Microforge (Narishige International USA, Inc, Amityville, N.Y.) to have a resistance of 1.5-2.5 MΩ when filled with CsCl internal solution at room temperature. Healthy cells (those that are round and translucent with no visible blemishes) were chosen for seal formation. A seal was formed between the pipette and the cell, and a brief pulse of suction was used to “break in” and establish the whole-cell configuration. The membrane potential was held at −100 mV before the voltage protocol began. Only cells with series resistance between 1.5-5 MΩ were retained for analysis. The voltage protocol was as follows: Cells were held at −100 mV for 12 ms followed by a hyperpolarizing step to −105 mV for 12 ms to monitor the leak. Cells were then stepped back to −100 mV for 40 ms. Cells were then depolarized to −20 mV for 10 ms and then returned to −100 mV for 26 ms.
Once the recording was started, the voltage protocol was run at 30 second intervals for 5 minutes to get a stable baseline. This was followed by four 30-second periods of 5 Hz stimulation of the same voltage protocol separated by 1 minute of rest which was then followed by 0.33 Hz stimulation after the last train. Currents were recorded using PatchMaster software with Heka EPC10 (HEKA Electronics, Lambrecht, Germany). Only cells with inward current amplitudes at −20 mV between 400 pA and 4 nA were accepted. In addition, cells having leak currents greater than 10% of their current amplitudes were discarded. […]

T1 sequence (Q15858 whole entry): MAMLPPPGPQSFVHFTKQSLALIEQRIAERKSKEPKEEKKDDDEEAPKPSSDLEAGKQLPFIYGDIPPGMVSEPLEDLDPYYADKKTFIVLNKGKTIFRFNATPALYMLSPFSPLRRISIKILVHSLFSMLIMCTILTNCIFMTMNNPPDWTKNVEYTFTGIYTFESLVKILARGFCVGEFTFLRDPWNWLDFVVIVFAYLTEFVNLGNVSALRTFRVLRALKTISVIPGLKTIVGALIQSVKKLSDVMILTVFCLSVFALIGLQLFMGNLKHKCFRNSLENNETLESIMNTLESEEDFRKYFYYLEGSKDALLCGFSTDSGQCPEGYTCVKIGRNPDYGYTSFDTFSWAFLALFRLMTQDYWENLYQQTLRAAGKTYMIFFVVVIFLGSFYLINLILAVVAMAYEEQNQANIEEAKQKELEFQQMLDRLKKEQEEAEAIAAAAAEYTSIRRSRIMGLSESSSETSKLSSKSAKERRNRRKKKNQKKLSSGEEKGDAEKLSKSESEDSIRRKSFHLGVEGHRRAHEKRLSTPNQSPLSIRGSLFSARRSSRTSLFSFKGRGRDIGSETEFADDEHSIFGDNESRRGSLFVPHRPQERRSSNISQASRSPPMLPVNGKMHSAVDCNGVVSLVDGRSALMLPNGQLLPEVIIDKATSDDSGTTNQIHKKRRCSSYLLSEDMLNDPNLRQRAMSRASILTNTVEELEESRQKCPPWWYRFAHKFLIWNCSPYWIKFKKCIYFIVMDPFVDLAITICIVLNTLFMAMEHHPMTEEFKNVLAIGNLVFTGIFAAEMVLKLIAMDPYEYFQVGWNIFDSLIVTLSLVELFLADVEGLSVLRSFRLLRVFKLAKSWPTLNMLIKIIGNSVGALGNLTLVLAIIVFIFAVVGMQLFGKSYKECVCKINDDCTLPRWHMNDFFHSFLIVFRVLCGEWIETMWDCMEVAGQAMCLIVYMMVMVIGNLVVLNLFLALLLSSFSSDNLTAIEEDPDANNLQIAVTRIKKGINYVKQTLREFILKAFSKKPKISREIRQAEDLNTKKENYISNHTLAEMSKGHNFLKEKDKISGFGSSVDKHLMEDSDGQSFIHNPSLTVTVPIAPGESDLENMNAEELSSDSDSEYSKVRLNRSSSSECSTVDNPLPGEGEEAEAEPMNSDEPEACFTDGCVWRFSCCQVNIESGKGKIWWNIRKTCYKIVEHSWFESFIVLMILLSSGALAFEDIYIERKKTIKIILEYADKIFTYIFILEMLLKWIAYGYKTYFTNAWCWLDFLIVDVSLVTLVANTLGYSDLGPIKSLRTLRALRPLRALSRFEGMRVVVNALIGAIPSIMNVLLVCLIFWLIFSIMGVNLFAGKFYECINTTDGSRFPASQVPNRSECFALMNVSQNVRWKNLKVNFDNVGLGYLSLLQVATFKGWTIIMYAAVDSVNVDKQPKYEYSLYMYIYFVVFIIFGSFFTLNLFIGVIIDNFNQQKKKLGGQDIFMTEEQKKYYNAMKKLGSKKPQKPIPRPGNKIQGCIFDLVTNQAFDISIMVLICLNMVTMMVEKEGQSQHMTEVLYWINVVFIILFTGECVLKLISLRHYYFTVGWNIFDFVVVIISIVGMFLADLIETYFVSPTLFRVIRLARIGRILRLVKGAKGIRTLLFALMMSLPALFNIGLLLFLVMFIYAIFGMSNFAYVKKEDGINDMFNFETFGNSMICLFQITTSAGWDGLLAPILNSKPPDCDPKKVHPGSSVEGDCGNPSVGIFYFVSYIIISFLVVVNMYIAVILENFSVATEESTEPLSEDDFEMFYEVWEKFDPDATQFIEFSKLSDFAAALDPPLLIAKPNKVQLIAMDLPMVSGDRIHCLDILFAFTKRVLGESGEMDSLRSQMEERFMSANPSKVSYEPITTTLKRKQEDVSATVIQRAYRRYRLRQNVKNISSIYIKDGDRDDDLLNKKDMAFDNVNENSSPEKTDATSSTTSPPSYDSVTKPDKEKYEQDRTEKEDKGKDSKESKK

Structure (SMILES)	PAMPA (10^−6 cm/s) [1]	pIC50 (NaV1.7 [2])	pIC50 (NaV1.7 [3])	inhibition at 10 µM (NaV1.7 [4])
Cc1cccc(C)c1NC(=O)C[n+]1cccc(C(C)C)c1 [Compound 31]	++ (0.1-2.0 10^−6 cm/s)	< 4.00	5.52 to 6.00	
Cc1cccc(C)c1NC(=O)C[n+]1cccn1C1CC1 [Compound 68]	+ (<0.1 10^−6 cm/s)	< 4.00	5.52 to 6.00	
Cc1cccc(C)c1NC(=O)C[n+]1cccn1CCC#N [Compound 70]	+ (<0.1 10^−6 cm/s)	< 4.00	4.52 to 5.00	
Cc1cccc(C)c1NC(=O)C[n+]1cccn1C1CCC1 [Compound 72]	+ (<0.1 10^−6 cm/s)	< 4.00	5.00 to 5.52	
Cc1cccc(C)c1NC(=O)C[n+]1cccn1CCC(C)C [Compound 74]	+ (<0.1 10^−6 cm/s)	< 4.00	5.00 to 5.52	
COc1cc(F)c[n+](CC(=O)Nc2c(C)cccc2C)c1 [Compound 78]	+ (<0.1 10^−6 cm/s)	< 4.00	5.52 to 6.00	
CCOC(=O)CCn1ccc[n+]1CC(=O)Nc1c(C)cccc1C [Compound 80]	+ (<0.1 10^−6 cm/s)	< 4.00	5.52 to 6.00	
Cc1cccc(C)c1NC(=O)C[n+]1ccc(C)n1C(C)C [Compound 82]	+ (<0.1 10^−6 cm/s)	< 4.00	5.52 to 6.00	
CCOC(=O)Cn1ccc(C)[n+]1CC(=O)Nc1c(C)cccc1C [Compound 85]	+ (<0.1 10^−6 cm/s)	< 4.00	5.00 to 5.52	
CCOC(=O)Cn1c(C)cc[n+]1CC(=O)Nc1c(C)cccc1C [Compound 86]	+ (<0.1 10^−6 cm/s)	< 4.00	5.00 to 5.52	
Cc1cccc(C)c1NC(=O)C[n+]1cccc(OC(C)C)c1 [Compound 87]	+ (<0.1 10^−6 cm/s)	< 4.00	> 6.00	
Cc1cccc(C)c1NC(=O)C[n+]1cccc(OCc2ccccc2)c1 [Compound 88]	+ (<0.1 10^−6 cm/s)	< 4.00	5.00 to 5.52	
Cc1cccc(C)c1NC(=O)C[n+]1ccc(C(N)=O)c(C(F)(F)F)c1 [Compound 90]	+ (<0.1 10^−6 cm/s)	< 4.00	5.00 to 5.52	
Cc1cccc(C)c1NC(=O)C[n+]1cc(N)cc(C(F)(F)F)c1 [Compound 91]	+ (<0.1 10^−6 cm/s)	4.00 to 4.52	5.00 to 5.52	
Cc1cccc(C)c1NC(=O)C[n+]1cccn1Cc1ccccc1 [Compound 92]	+ (<0.1 10^−6 cm/s)	< 4.00	5.52 to 6.00	
Cc1cccc(C)c1NC(=O)C[n+]1c(C)ccn1C [Compound 93]	+ (<0.1 10^−6 cm/s)	< 4.00	5.00 to 5.52	
COc1cc(C#N)c[n+](CC(=O)Nc2c(C)cccc2C)c1 [Compound 97]		> 5.00	4.52 to 5.00	70 to 95%
Cc1cccc(C)c1NC(=O)C[n+]1c(C)ccn1C(C)C [Compound 102]	+ (<0.1 10^−6 cm/s)	< 4.00	5.52 to 6.00	
CCCC(C(=O)Nc1c(C)cccc1C)[n+]1ccccc1 (stereo not drawn) [Compound 107]	+ (<0.1 10^−6 cm/s)	< 4.00	5.00 to 5.52	
